Data on one molecule can be found in patent US11891397B1, “Pyrido[4′,3′:4,5]pyrrolo[3,2-c][1,7]naphthyridin-10-one compounds as CK2 inhibitors” (KING FAISAL UNIVERSITY, priority 2023, dated 2024).

The test system of one assay is A375 (melanoma). Nature of the assay: In vitro cytotoxic activity MTT assay, A375. Particulars: Homo sapiens, A-375, 96 hours exposure, read-out: IC50, 50% inhibition of cell proliferation. Format: cell-based. On the procedure: (§1) Compounds 1-16 were screened for their in vitro cytotoxic activity utilizing a 3-(4,5-dimethyl-thiazol-2-yl)-2,5-diphenyltetrazolium bromide (MTT) assay against selected cancer human cell lines consisting of PC3 (prostate), HCT116 (colon), A375 (melanoma), H1299 (lung), MIAPaCa-2 (pancreas), HL60 (leukemia), MCF7 (breast), MDA-MB-231 (breast) (T. Mosmann, J. Immunol. Meth., 1983, 65, 55-63). The cells were cultured at 37° C. in RMPI1640 medium supplemented with 10% fetal bovine serum, 50 IU/mL penicillin, and 50 μg/mL streptomycin in a 5% CO2 incubator. All cells were sub-cultured 3 times/week by trypsinisation. Viable cells were seeded and allowed to adhere for 12 h before a test drug was added in 96-well plates at an initial density of 1.0×10^5 cells/mL. Tumour cell lines were separately exposed to various concentrations of the tested compounds followed by incubation at a temperature of 37° C. during 96 h inside a medium of fresh RMPI 1640. Cells were subsequently incubated at 37° C. using MTT at 0.5 mg/mL during 4 h. After removal of supernatant, formazan crystals were dissolved in isopropanol and the optical density was measured at 570 nm. CX-4945 was used as a positive control.
(In general: Tetrazolium assays rely on reduction of a dye to a coloured formazan, in cell work by metabolically active cells.)

The subject of the next assay is HL60 (leukemia). The assay is described as follows: In vitro cytotoxic activity MTT assay, HL60. It counts as cell-based. Particulars: Homo sapiens, HL-60, 96 hours exposure, read-out: IC50, 50% inhibition of cell proliferation. On the procedure: as §1
For another assay, the system named is H1299 (lung). The assay is described as follows: In vitro cytotoxic activity MTT assay, H1299. Format: cell-based. The settings on record: Homo sapiens, NCI-H1299, 96 hours exposure, read-out: IC50, 50% inhibition of cell proliferation. Here is the method:
as §1

In another assay the test system is MCF7 (breast). The assay is described as follows: In vitro cytotoxic activity MTT assay, MCF7. Format: cell-based. Particulars: Homo sapiens, 96 hours exposure, read-out: IC50, 50% inhibition of cell proliferation. On the procedure: as §1
The next assay concerns MIAPaCa-2 (pancreas). Nature of the assay: In vitro cytotoxic activity MTT assay, MIAPaCa-2. The settings on record: Homo sapiens, MIA PaCa-2, 96 hours exposure, read-out: IC50, 50% inhibition of cell proliferation. It counts as cell-based. On the procedure: as §1
The next assay deals with MDA-MB-231 (breast). Nature of the assay: In vitro cytotoxic activity MTT assay, MDA-MB-231. Format: cell-based. Particulars: Homo sapiens, 96 hours exposure, read-out: IC50, 50% inhibition of cell proliferation. Here is the method:
as §1

The next assay relates to PC3 (prostate). Nature of the assay: In vitro cytotoxic activity MTT assay, PC3. Format: cell-based. The settings on record: Homo sapiens, 96 hours exposure, read-out: IC50, 50% inhibition of cell proliferation. On the procedure:
as §1

In a further assay the test system is HCT116 (colon). The assay is described as follows: In vitro cytotoxic activity MTT assay, HCT116. It counts as cell-based. Particulars: Homo sapiens, HCT-116, 96 hours exposure, read-out: IC50, 50% inhibition of cell proliferation. On the procedure:
as §1

The target of another assay is T1, recombinant human CK2 (Homo sapiens, UniProt P68400).
T1 construct: purchased Millipore
The assay is described as follows: CK2 Kinase Assay (33P-ATP filter plate). It counts as biochemical. The settings on record: final ATP concentration 15 μM, 10 min at 30° C; read-out: protein kinase CK2 IC50. On the procedure: CK2 Kinase Assay was conducted using the protocol as described in Pierre F. et al; J. Med. Chem. 2011, 54, 635-654. The tested compounds in aqueous solution were added at a volume of 10 μL to a reaction mixture comprising 10 μL of assay dilution buffer (ADB; 20 mM MOPS, pH 7.2, 25 mM β-glycerol phosphate, 5 mM EGTA, 1 mM sodium orthovanadate, and 1 mM dithiothreitol), 10 μL of substrate peptide (RRRDDDSDDD, dissolved in ADB at a concentration of 1 mM), 10 μL of recombinant human CK2 (RROP-holoenzyme, 25 ng dissolved in ADB; Millipore). Reactions were initiated by the addition of 10 μL of ATP solution (90% 75 mMMgCl2, 75 μM ATP (final ATP concentration:15 μM) dissolved in ADB; 10% [γ-33P] ATP (stock 1 mCi/100 μL; 3000 Ci/mmol (Perkin-Elmer) and maintained for 10 min at 30° C. The reactions were quenched with 100 μL of 0.75% phosphoric acid and then transferred to and filtered through a phosphor cellulose filter plate (Millipore). After washing each well five times with 0.75% phosphoric acid, the plate was dried under vacuum for 5 min and, following the addition of 15 μL of scintillation fluid to each well, the residual radioactivity was measured using a Wallac luminescence counter. The IC50 values were derived from eight concentrations of test inhibitors.

Each structure is given as a SMILES string.

T1 sequence (P68400 whole entry): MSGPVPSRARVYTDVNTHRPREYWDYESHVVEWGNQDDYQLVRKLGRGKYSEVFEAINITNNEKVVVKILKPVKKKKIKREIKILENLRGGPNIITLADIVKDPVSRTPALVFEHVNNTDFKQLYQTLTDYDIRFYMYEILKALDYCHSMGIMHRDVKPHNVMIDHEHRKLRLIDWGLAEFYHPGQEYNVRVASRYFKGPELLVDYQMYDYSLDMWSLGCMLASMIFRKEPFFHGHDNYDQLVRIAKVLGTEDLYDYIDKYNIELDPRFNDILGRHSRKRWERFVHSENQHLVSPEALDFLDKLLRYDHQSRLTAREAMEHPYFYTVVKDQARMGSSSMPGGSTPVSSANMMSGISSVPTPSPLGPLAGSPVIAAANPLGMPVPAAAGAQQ
T1 sequence (P67870 whole entry partner): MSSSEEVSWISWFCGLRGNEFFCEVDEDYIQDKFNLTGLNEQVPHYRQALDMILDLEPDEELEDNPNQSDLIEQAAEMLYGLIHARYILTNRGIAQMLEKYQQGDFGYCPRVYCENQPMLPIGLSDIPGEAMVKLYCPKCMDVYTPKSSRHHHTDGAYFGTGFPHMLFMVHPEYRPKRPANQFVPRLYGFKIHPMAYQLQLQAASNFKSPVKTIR

In the case of `O=c1[nH]ccc2c1[nH]c1c3ccncc3nc(Nc3cccc(Cl)c3)c21` [Compound 1, 6-((3-chlorophenyl)amino)-9,11-dihydro-10H-pyrido[4′,3′:4,5]pyrrolo[3,2-c][1,7]naphthyridin-10-one], the IC50 in the assay with A375 (melanoma) was 3900 nM; in the assay on HL60 (leukemia), 4600 nM; in the assay on H1299 (lung) it was 2700 nM; with MCF7 (breast), 5400 nM; with MIAPaCa-2 (pancreas), 1200 nM; in the assay with MDA-MB-231 (breast), 4000 nM. Moreover, the figures for the IC50 in the assay with PC3 (prostate), in the assay with HCT116 (colon) and on recombinant human CK2 were 1800 nM, 2100 nM and 45 nM, respectively.
